# Values of other authors in US20230263779A1, “METHODS OF TREATING SOLID TUMORS USING NANOPARTICLE MTOR INHIBITOR COMBINATION THERAPY” (Abraxis BioScience, LLC, priority 2015, published 2023).
# Legend:
# [1] = in vivo
structure (smiles),measurement,setting,value
COc1ccc(COc2cc3oc(=O)c4cc(C(C)O)ccc4c3cc2OC)cc1 (centres unmarked) [Palomid 529],affinity for ABCB1/ABCG2,ABCB1/ABCG2,lacks affinity
same,brain penetration,[1],good brain penetration
